# Assays:
# [1] = system: Mycobacterium tuberculosis; assay: Induction of membrane damage in Mycobacterium bovis BCG incubated for 60 mins under dark condition using DiOC2 probe by fluorescence assay; type: organism-based; conditions: variant bovis BCG, 1 h
# [2] = system: Mycobacterium tuberculosis; assay: Antimycobacterial activity against Mycobacterium bovis BCG assessed as depletion of intracellular ATP level at 5 times antimycobacterial MIC after 20 hrs by luciferin/luciferase coupled reporter gene assay relative to control; type: functional, variant bovis BCG
Compound,IC50 [1],Activity [2]
CN(C)CCOc1ncc(Nc2cc(-c3ccccc3)nc3cc(-c4ccc(F)cc4)nn23)cc1F,> 100 µM,25%
COc1cc2nc(NCCC3CCOCC3)nc(Nc3cc(C(C)(C)C)n(C)n3)c2cc1OC,> 100 µM,–
CN(C)CCOc1ncc(Nc2cc(C(F)(F)F)nc3cc(-c4ccc(F)cc4)nn23)cc1F,> 100 µM,–
CN(C)CCOc1ncc(Nc2cc(-c3ccccc3)nc3cc(-c4ccc(F)cc4)[nH]c23)cc1F,> 100 µM,23%
CCOc1ncc(Nc2nc(NCCC3CCOCC3)nc3cc(OC)c(OC)cc23)cc1F,–,31%
COc1cc2nc(N3CCC(c4ccccc4Cl)C3)cc(Nc3cnc(OCCN(C)C)c(F)c3)c2cc1OC (stereo not drawn),> 100 µM,68%
CN(C)CCOc1ncc(Nc2cc(N3CCC(c4ccccc4Cl)C3)nc3cc(F)c(F)cc23)cc1F (stereo not drawn),> 100 µM,25%
COc1cc2nc(N3CCC(c4ccccc4Cl)C3)cc(Nc3cnc(NCCN(C)C)c(F)c3)c2cc1OC (stereo not drawn),–,22%
CCOc1ncc(Nc2cc(NCCC3CCOCC3)nc3cc(OC)c(OC)cc23)cc1F,> 100 µM,5%
COc1nc2ccc(Br)cc2cc1[C@@H](c1ccccc1)[C@@](O)(CCN(C)C)c1cccc2ccccc12 [BEDAQUILINE],> 100 µM,76%
N#CC(C#N)=NNc1cccc(Cl)c1 [CARBONYL CYANIDE M-CHLOROPHENYLHYDRAZONE],3 µM,–
NNC(=O)c1ccncc1 [ISONIAZID],–,-6%
